Data from ChEMBL document CHEMBL3045790, “QSAR study of 5-arylidene-2,4-thiazolidinediones as aldose reductase inhibitors” (Med Chem Res, 2008).

molecular target: Aldo-keto reductase family 1 member B1 (Homo sapiens, UniProt P15121); assay: Inhibition of aldose reductase (unknown origin)

Structure (SMILES) | IC50 [µM]
O=C(O)CN1C(=O)S/C(=C/c2cccc3ccccc23)C1=O | 6.18
O=C(O)CN1C(=O)S/C(=C\c2ccc(OCc3ccccc3)cc2)C1=O | 10.7
O=C1NC(=O)/C(=C/c2cccc3ccccc23)S1 | 8.95
COC(=O)CN1C(=O)S/C(=C/c2cccc(N)c2)C1=O | 1.32
O=C1NC(=O)/C(=C\c2cccc(O)c2)S1 | 0.15
O=C(O)CN1C(=O)S/C(=C\c2ccc(Oc3ccccc3)cc2)C1=O | 0.17
O=C(O)CN1C(=O)S/C(=C/c2cccc(O)c2)C1=O | 4.17
O=C(O)CN1C(=O)S/C(=C\c2cccc(Oc3ccccc3)c2)C1=O | 10.7
O=C1NC(=O)/C(=C/c2cccc(Oc3ccccc3)c2)S1 | 0.28
Nc1cccc(/C=C2/SC(=O)NC2=O)c1 | 6.14
O=C(O)CN1C(=O)S/C(=C/c2cccc([N+](=O)[O-])c2)C1=O | 0.13

Further molecules by falling IC50, results first:

IC50 [µM] | Structure (SMILES)
39.1 | COC(=O)CN1C(=O)S/C(=C/c2ccc(O)cc2)C1=O
20.2 | O=C1NC(=O)/C(=C/c2ccc(O)cc2)S1
1.19 | O=C(O)/C=C/CN1C(=O)S/C(=C/c2ccc(O)cc2)C1=O
0.82 | O=C(O)CN1C(=O)S/C(=C/c2ccc([N+](=O)[O-])cc2)C1=O
0.661 | O=C(O)CN1C(=O)S/C(=C/c2ccc(-c3ccccc3)cc2)C1=O
0.49 | O=C(O)CN1C(=O)S/C(=C/c2ccc(O)cc2)C1=O
0.26 | COC(=O)CN1C(=O)S/C(=C/c2cccc(Oc3ccccc3)c2)C1=O
